{"source": "paper PMC5683375", "about": "“Vasculotide reduces pulmonary hyperpermeability in experimental pneumococcal pneumonia” (Critical Care, 2017)", "key": {"mouse Tie2Fc receptor": {"target": "T1, mouse Tie2Fc receptor (Mus musculus, UniProt Q02858)", "T1 construct": "Fc (immunoglobulin Fc fusion partner); purchased R&D Systems", "T1 sequence (Q02858 with tags, fused parts or gaps limits assumed)": "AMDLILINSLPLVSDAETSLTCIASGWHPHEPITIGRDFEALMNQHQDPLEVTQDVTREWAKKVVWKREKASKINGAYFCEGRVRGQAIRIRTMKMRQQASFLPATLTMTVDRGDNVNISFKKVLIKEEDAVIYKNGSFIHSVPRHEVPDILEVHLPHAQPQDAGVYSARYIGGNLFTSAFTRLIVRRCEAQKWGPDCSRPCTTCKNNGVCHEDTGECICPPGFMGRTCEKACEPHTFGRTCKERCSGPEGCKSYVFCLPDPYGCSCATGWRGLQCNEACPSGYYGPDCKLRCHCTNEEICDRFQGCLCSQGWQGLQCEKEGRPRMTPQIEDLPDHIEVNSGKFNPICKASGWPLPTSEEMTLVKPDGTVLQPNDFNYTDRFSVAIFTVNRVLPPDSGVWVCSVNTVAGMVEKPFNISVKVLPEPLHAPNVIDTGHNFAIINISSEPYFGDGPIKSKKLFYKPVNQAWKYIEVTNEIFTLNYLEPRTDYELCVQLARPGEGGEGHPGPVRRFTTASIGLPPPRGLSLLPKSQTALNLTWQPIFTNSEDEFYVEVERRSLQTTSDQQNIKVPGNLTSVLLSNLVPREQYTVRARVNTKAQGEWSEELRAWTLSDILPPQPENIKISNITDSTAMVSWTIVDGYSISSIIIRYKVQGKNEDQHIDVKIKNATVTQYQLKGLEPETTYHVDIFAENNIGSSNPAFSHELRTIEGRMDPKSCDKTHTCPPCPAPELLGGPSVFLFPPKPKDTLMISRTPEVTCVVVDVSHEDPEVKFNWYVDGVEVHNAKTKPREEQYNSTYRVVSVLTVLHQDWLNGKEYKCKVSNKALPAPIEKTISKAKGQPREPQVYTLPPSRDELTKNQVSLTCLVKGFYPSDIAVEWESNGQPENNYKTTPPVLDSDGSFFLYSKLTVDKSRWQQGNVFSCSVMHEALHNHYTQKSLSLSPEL", "assay": "Tryptophan fluorescence spectroscopy, saturation binding of VT to mouse Tie2Fc", "procedure": "(§1) Binding studies were carried out in 96 well plates (Brand-plates pureGrade reference 781607; BRAND GMBH + CO KG, Wertheim, Germany). Mouse Tie2Fc receptor and human immunoglobulin G (IgG) Fc were obtained from R&D Systems (Minneapolis, MN, USA). Dilutions were prepared in HyClone™ Dulbecco’s PBS (GE Healthcare Life Sciences, Mississauga, ON, Canada). The saturation binding curve was prepared with all ligand dilutions and receptors as 2× concentrations. Equal volumes of ligand and receptor were added to generate a final 1× concentration (500 nM Tie2Fc final concentration). Spectroscopic studies were performed on a SpectraMax M2 fluorometer (Molecular Devices, Sunnyvale, CA, USA). Measurements were taken at an excitation wavelength of 295 nm. Emission scans were set from 360 to 450 nm.\nSaturation binding data (Fig. 1a–c) are presented as mean ± SEM and were calculated using normalized one-site specific binding and nonlinear regression. For the Tie2 phosphorylation analysis (Fig. 1d), one-way analysis of variance (with Dunnett’s post hoc multiple comparisons test) was used to compare treatment groups with the vehicle-treated group. All other experimental data are expressed as mean, mean + SEM, or mean ± SEM. Groups were compared using the Mann-Whitney U test followed by the Bonferroni-Holm correction, where indicated. p Values < 0.05 were considered significant. Analyses were performed using Prism version 6.00 software (GraphPad Software, La Jolla, CA, USA)."}, "[1]": {"test_system": "human immunoglobulin G (IgG) Fc", "assay": "Tryptophan fluorescence spectroscopy, VT with human IgG Fc (specificity control)", "type": "binding", "settings": "recombinant human IgG Fc", "procedure": "as §1"}, "mouse lungs": {"test_system": "mouse lungs", "assay": "Isolated perfused and ventilated mouse lung, PLY-induced permeability (ex vivo)", "parameters": "species or system mouse (C57BL/6 N)", "settings": "VT 50 or 100 ng/ml, 15 minutes before PLY 1.4 μg/ml, BAL 30 minutes after PLY, HSA 0.04% in perfusate, n = 6-8", "procedure": "Mouse lungs were prepared as described previously. Briefly, anesthetized mice were tracheotomized and ventilated. After sternotomy and cannulation of the left atrium and pulmonary artery, lungs were perfused with 37 °C sterile Krebs-Henseleit hydroxyethyl-amylopectin buffer (1 ml/minute) and ventilated by negative pressure (Pexp −4.5, Pins −9.0 cmH2O) in a humidified chamber. After a 20-minute steady state, continuous infusion of VT (50 or 100 ng/ml) or PBS was commenced. Five minutes later, human serum albumin (HSA) was admixed to the perfusate (0.04%) for permeability quantification. Ten minutes thereafter, 1.4 μg/ml PLY was infused into the pulmonary artery for 1 minute. Bronchoalveolar lavage (BAL) was performed 30 minutes after PLY application, and HSA concentration was measured in bronchoalveolar fluid (BALF)."}, "hPMVEC": {"test_system": "hPMVEC", "parameters": "method as in PMID 21421750", "settings": "cited from earlier work"}, "abdominal sepsis": {"test_system": "abdominal sepsis", "parameters": "method as in 3 sources, ref 26 = [26]; PMID 22040774; doi:10.1186/cc10523; 26. Kümpers P Gueler F David S Slyke PV Dumont DJ Park JK Bockmeyer CL Parikh SM Pavenstadt H Haller H The synthetic Tie2 agonist peptide Vasculotide protects against vascular leakage and reduces mort ||| ref 25, 26 = [25]; PMID 21421750; doi:10.1152/ajplung.00459.2010; 25. David S Ghosh CC Kumpers P Shushakova N Van Slyke P Khankin EV Karumanchi SA Dumont D Parikh SM Effects of a synthetic PEG-ylated Tie-2 agonist peptide on endotoxemic lung injury and mortality Am || [26]; PMID 22040774; doi:10.1186/cc10523; 26. Kümpers P Gueler F David S Slyke PV Dumont DJ Park JK Bockmeyer CL Parikh SM Pavenstadt H Haller H The synthetic Tie2 agonist peptide Vasculotide protects against vascular leakage and reduces mort ||| ref 26 (Kümpers et al.)", "settings": "cited from earlier work"}, "acute kidney injury": {"test_system": "acute kidney injury", "parameters": "method as in PMID 26911791", "settings": "cited from earlier work"}, "[2]": {"test_system": "mice with influenza pneumonia", "settings": "cited from earlier work"}, "Tie2": {"test_system": "Tie2", "parameters": "method as in PMID 18939935, PMID 21421750, PMID 22040774, PMID 26046800, PMID 25159192", "settings": "other cell types/tissues; cited from earlier work"}, "[3]": {"test_system": "Streptococcus pneumoniae-infected mice", "assay": "Blood leukocytes in Streptococcus pneumoniae-infected mice", "settings": "VT 500 ng i.v.; 24 h and 48 h p.i.; n = 8", "quoted_text": "(§2) For all experiments, female C57BL/6 N mice (8 to 10 weeks old, weighing 18 to 20 g; Charles River Laboratories, Sulzfeld, Germany) were used. Animals were housed under specific pathogen-free conditions under a 12–h/12-h light/dark cycle with free access to food and water.\nMice were anesthetized with ketamine (80 mg/kg) and xylazine (25 mg/kg) and transnasally inoculated with 5 × 10^6 colony-forming units (CFU) of S. pneumoniae (NCTC7978) in 20 μl of sterile PBS as described before [35]. Sham-infected control mice received 20 μl of sterile PBS. After 22 h, 34 h, and 46 h, body weight and rectal temperature were measured, and different dosages of VT (100, 200, or 500 ng in 100 μl of PBS) or PBS were intravenously injected into the tail vein. Twenty-four or forty-eight hours postinfection (p.i.), mice were anesthetized (160 mg/kg ketamine and 75 mg/kg xylazine) and exsanguinated. […] Subsequently, lungs were flushed, and BAL was performed. […] Blood leukocytes were quantified using a scil Vet ABC Hematology Analyzer (scil animal care company GmbH, Viernheim, Germany)."}, "[4]": {"test_system": "Streptococcus pneumoniae-infected mice", "assay": "BALF cytokines (multiplex assay) in Streptococcus pneumoniae-infected mice", "settings": "VT 500 ng i.v., n = 8", "quoted_text": "as §2\n(§3) Mice were anesthetized with ketamine (80 mg/kg) and xylazine (25 mg/kg) and transnasally inoculated with 5 × 10^6 colony-forming units (CFU) of S. pneumoniae (NCTC7978) in 20 μl of sterile PBS as described before [35]. Sham-infected control mice received 20 μl of sterile PBS. After 22 h, 34 h, and 46 h, body weight and rectal temperature were measured, and different dosages of VT (100, 200, or 500 ng in 100 μl of PBS) or PBS were intravenously injected into the tail vein. Twenty-four or forty-eight hours postinfection (p.i.), mice were anesthetized (160 mg/kg ketamine and 75 mg/kg xylazine) and exsanguinated. […] Subsequently, lungs were flushed, and BAL was performed. To determine permeability, HSA (1 mg/75 μl) was intravenously infused 1 h before lung preparation, and the BALF/plasma ratio was calculated as described elsewhere [35]. […] Cytokines from BALF were measured with a multiplex assay (ProcartaPlex; eBioscience), and plasma levels of interleukin (IL)-6 (BD Biosciences) and KC (keratinocyte chemoattractant; R&D Systems) were quantified by ELISA."}, "S. pneumoniae": {"test_system": "S. pneumoniae", "assay": "Bacterial burden in BALF and blood of Streptococcus pneumoniae-infected mice", "settings": "VT 500 ng i.v., 24 h and 48 h p.i., n = 8", "quoted_text": "Mice were anesthetized with ketamine (80 mg/kg) and xylazine (25 mg/kg) and transnasally inoculated with 5 × 10^6 colony-forming units (CFU) of S. pneumoniae (NCTC7978) in 20 μl of sterile PBS as described before [35]. Sham-infected control mice received 20 μl of sterile PBS. After 22 h, 34 h, and 46 h, body weight and rectal temperature were measured, and different dosages of VT (100, 200, or 500 ng in 100 μl of PBS) or PBS were intravenously injected into the tail vein. Twenty-four or forty-eight hours postinfection (p.i.), mice were anesthetized (160 mg/kg ketamine and 75 mg/kg xylazine) and exsanguinated. […] Subsequently, lungs were flushed, and BAL was performed.\nS. pneumoniae (S. pn.) infected mice (5x106\nCFU/mouse) were intravenously (i.v.) treated with Vasculotide (VT; 500 ng) or PBS 22 h, 34\nh and 46 h post infection (p.i.). The bacterial burden was quantified in bronchoalveolar lavage\nfluid (BALF) and in blood 24 h or 48 h p.i."}, "[5]": {"test_system": "Streptococcus pneumoniae-infected mice", "assay": "Plasma levels of IL-6 and KC (ELISA) in Streptococcus pneumoniae-infected mice", "settings": "VT 500 ng i.v., n = 8", "quoted_text": "as §2, §3"}, "[6]": {"test_system": "Streptococcus pneumoniae-infected mice", "assay": "Lung permeability (HSA BALF/plasma ratio) in Streptococcus pneumoniae-infected mice", "quoted_text": "as §2, §3"}}, "note": "Entries after “also recorded” stand apart in the source; their conditions may differ. Like-named read-outs stand apart in the source and are kept apart here.", "data": [{"substance": "Vasculotide [VT]", "values": [{"measurement": "saturability of fluorescence intensity with mouse Tie2Fc", "setting": "mouse Tie2Fc receptor; 500 nM Tie2Fc", "result": "saturable"}, {"measurement": "intrinsic fluorescence intensity / binding with mouse Tie2Fc", "setting": "mouse Tie2Fc receptor; 500 nM Tie2Fc, excitation 295 nm", "result": "dose-dependent binding; also recorded: dose-dependent increase in intrinsic fluorescence intensity"}, {"measurement": "Kd", "setting": "mouse Tie2Fc receptor; 95% confidence interval, 500 nM Tie2Fc, one-site specific binding, read-out: 95% CI of the dissociation constant, mouse Tie2Fc", "result": "2.92 to 67", "unit": "nM"}, {"measurement": "dissociation constant, in words", "setting": "mouse Tie2Fc receptor; murine Tie2 receptor, discussion", "result": "in the low nanomolar range"}, {"measurement": "Kd", "setting": "mouse Tie2Fc receptor; tryptophan fluorescence, excitation 295 nm, emission 360-450 nm, 500 nM Tie2Fc, PBS, normalized one-site specific binding, nonlinear regression, read-out: dissociation constant of the normalized specific binding of VT to mouse Tie2Fc", "result": 35, "unit": "nM"}, {"measurement": "fluorescence intensity / binding with human IgG Fc", "setting": "[1]", "result": "No saturation of binding is observed; also recorded: no dose-dependent increase in fluorescence intensity"}, {"measurement": "PLY-induced lung hyperpermeability (HSA in BALF)", "setting": "mouse lungs", "result": "decreased PLY-induced pulmonary permeability; also recorded: significantly decreased hyperpermeability of mouse lungs; also recorded: dose-dependently decreased hyperpermeability of mouse lungs"}, {"measurement": "protection of endothelial cells from LPS-induced disruption", "setting": "hPMVEC", "result": "protects hPMVEC after LPS stimulation; also recorded: protect endothelial cells from lipopolysaccharide (LPS)-induced disruption"}, {"measurement": "protective effect in murine endotoxemia and abdominal sepsis (sepsis part)", "setting": "abdominal sepsis; abdominal sepsis", "result": "protective effect"}, {"measurement": "barrier disruption in experimental sepsis", "setting": "abdominal sepsis", "result": "diminish barrier disruption"}, {"measurement": "local and systemic inflammatory markers after abdominal sepsis", "setting": "abdominal sepsis; treatment started 2 h after cecal ligation and puncture, ref 26 (Kümpers et al.)", "result": "reductions in local and systemic inflammatory markers"}, {"measurement": "barrier disruption in acute kidney injury", "setting": "acute kidney injury", "result": "protective effect; also recorded: diminish barrier disruption"}, {"measurement": "survival of mice with influenza pneumonia", "setting": "[2]", "result": "increase the survival"}, {"measurement": "leukocyte influx into the lung in influenza pneumonia", "setting": "[2]; ref 28 (Sugiyama et al.)", "result": "without affecting leukocyte influx into the lung"}, {"measurement": "pulmonary barrier function in influenza pneumonia", "setting": "[2]; ref 28 (Sugiyama et al.)", "result": "protective effect of VT on pulmonary barrier function"}, {"measurement": "virus replication in influenza pneumonia", "setting": "[2]; ref 28 (Sugiyama et al.)", "result": "without affecting leukocyte influx into the lung or repressing virus replication"}, {"measurement": "Tie2 phosphorylation", "setting": "Tie2", "result": "confirms findings of other studies"}, {"measurement": "blood leukocytes", "setting": "[3]", "result": "unaffected; also recorded: did not differ"}, {"measurement": "BALF cytokine concentrations (except IL-12p40)", "setting": "[4]; 24 h and 48 h p.i.", "result": "not significantly affected; also recorded: not significantly reduced"}, {"measurement": "IL-12p40 levels in BALF, 48 h p.i.", "setting": "[4]; 48 h p.i.", "result": "reduced; also recorded: decreased"}, {"measurement": "bacterial burden in BALF", "setting": "S. pneumoniae; BALF", "result": "did not affect; also recorded: not significantly reduced"}, {"measurement": "bacterial burden in blood", "setting": "S. pneumoniae; blood", "result": "did not affect; also recorded: not significantly reduced"}, {"measurement": "IL-6 and KC plasma levels, trend", "setting": "[5]; 24 h and 48 h p.i.", "result": "slightly decreased by trend"}, {"measurement": "IL-6 plasma level, 24 h p.i.", "setting": "[5]; 24 h p.i.", "result": "significantly reduced"}, {"measurement": "IL-6 plasma level, 48 h p.i.", "setting": "[5]; 48 h p.i.", "result": "did not differ"}, {"measurement": "lung permeability (HSA BALF/plasma ratio), 48 h p.i., second set", "setting": "[6]; VT 500 ng i.v. at 22, 34, 46 h p.i., Fig. 4b, n = 8, vs PBS", "result": "decreased pulmonary barrier disruption; also recorded: Lung permeability was decreased"}, {"measurement": "lung hyperpermeability (HSA BALF/plasma ratio), 48 h p.i.", "setting": "[6]; VT 500 ng i.v. at 22, 34, 46 h p.i., dose-finding experiment (Fig. 3b), n = 5-7, vs PBS", "result": "significant permeability reduction; also recorded: significantly reduced lung hyperpermeability"}, {"measurement": "lung permeability (HSA BALF/plasma ratio), 24 h p.i., second set", "setting": "[6]; VT 500 ng i.v. at 22 h p.i., Fig. 4a, n = 8, vs PBS", "result": "decreased pulmonary barrier disruption; also recorded: Lung permeability was decreased"}, {"measurement": "lung hyperpermeability (HSA BALF/plasma ratio), 24 h p.i.", "setting": "[6]; VT 500 ng i.v. at 22 h p.i., dose-finding experiment (Fig. 3a), n = 5-7, vs PBS", "result": "significant permeability reduction; also recorded: significantly reduced lung hyperpermeability"}, {"measurement": "lung hyperpermeability, dose dependence", "setting": "[6]; VT 100, 200, 500 ng i.v. from 22 h p.i., 24 h and 48 h p.i.", "result": "reduced lung hyperpermeability in a dose-dependent fashion; also recorded: quickly and effectively reduce pulmonary hyperpermeability in a dose-dependent manner"}]}]}
